Measured values: article PMC5342483, “Nucleoside 5′-O-monophosphorothioates as modulators of the P2Y14 receptor and mast cell degranulation” (Oncotarget, 2016)

Tests used:
Assay type in all cases: cell-based
P2Y14 receptor [1] = biological target: T1, P2Y14 receptor (Homo sapiens, UniProt Q15391); test: Agonist calcium mobilization assay (Fluo-8) in HEK293T Gαqi5 cells stably expressing human P2Y14R; conditions: HEK-293T; read-out: CONCENTRATION / 100 μM
T1 construct: gene P2RY14
T1 sequence (Q15391 1-338): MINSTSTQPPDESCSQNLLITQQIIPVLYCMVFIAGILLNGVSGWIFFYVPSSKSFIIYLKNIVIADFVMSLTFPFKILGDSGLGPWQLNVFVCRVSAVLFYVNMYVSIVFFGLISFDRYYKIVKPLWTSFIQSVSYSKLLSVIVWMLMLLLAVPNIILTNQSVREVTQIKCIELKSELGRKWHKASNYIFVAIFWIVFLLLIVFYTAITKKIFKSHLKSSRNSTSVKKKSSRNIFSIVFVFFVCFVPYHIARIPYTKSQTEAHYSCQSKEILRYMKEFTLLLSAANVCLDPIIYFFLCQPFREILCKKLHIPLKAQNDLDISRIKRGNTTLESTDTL

P2Y14 receptor [2] = biological target: T1, P2Y14 receptor; test: Antagonist calcium mobilization assay (Fluo-8) in HEK293T Gαqi5 cells stably expressing human P2Y14R; residual response to UDPG (EC80)[…] at […], […] at […]; conditions: HEK-293T; read-out: CONCENTRATION / 1000 μM
P2Y14 receptor [3] = biological target: T1, P2Y14 receptor; test: Agonist calcium mobilization assay (Fluo-8) in HEK293T Gαqi5 cells stably expressing human P2Y14R; conditions: HEK-293T; read-out: CONCENTRATION / 1 μM

Structure (SMILES)	activation at 100 µM (P2Y14 receptor [1])	further results
Nc1ncnc2c1ncn2[C@@H]1O[C@H](COP(O)(O)=S)[C@@H](O)[C@H]1O [AMPS, adenosine 5'-O-monophosphorothioate]	84.4 ± 17.6%	
Nc1ccn([C@@H]2O[C@H](COP(O)(O)=S)[C@@H](O)[C@H]2O)c(=O)n1 [CMPS, cytidine 5'-O-monophosphorothioate]	77.5 ± 4.4%	
Cc1cn([C@H]2C[C@H](O)[C@@H](COP(O)(O)=S)O2)c(=O)[nH]c1=O [TMPS, thymidine 5'-O-monophosphorothioate]		activity at 1000 µM (P2Y14 receptor [2]): 17.3 ± 52.9%
O=c1ccn([C@@H]2O[C@H](COP(O)(O)=S)[C@@H](O)[C@H]2O)c(=O)[nH]1 [UMPS, uridine 5'-O-monophosphorothioate]		activation at 1 µM (P2Y14 receptor [3]): 84.5 ± 5.34%
